Experimental data taken from patent US6683076B2, “Methods for therapeutic use of glucosylceramide synthesis inhibitors and composition thereof” (Oxford Glyco-Sciences (UK) Ltd, priority 2000, dated 2004).
Where two headings read alike, the source gives them in different places. Marks after values point to notes of the source that are not given here.

Tests used:
[1] = patients with Parkinson's disease, stroke and spinal cord injuries; cited from earlier work
[2] = test system: domestic cat model of Niemann-Pick C; assay: Feline model of NPC: neurologic and clinical findings; format: in vivo; design: Front leg Hopping / Rear leg hopping / Vision-Menace: scale not given here; conditions: for Ataxia / Front leg Hopping / Intention tremors / Rear leg hopping / Vision-Menace: NPC-affected cat S222, NB-DNJ treated
Method: A breeding colony for this animal model of NPC is being maintained to study the disease and its potential treatments (Brown et al (1996) J. Inherit Metab. Dis. 19:319-330).
From seven feline NPC carrier litter mates, normal and NPC-affected male and female cats were selected for the study. The affected female and unaffected male began treatment with NB-DNJ at 1200 mg/kg/day. […] During a brief recovery period for these animals, an unrelated normal cat was treated to determine the maximum tolerated dose for NB-DNJ in this species. Based on this dose-ranging work, the NPC-affected and unaffected litter mates were restarted with NB-DNJ at 50 mg/kg/day. Over the following weeks, the administration level was increased to 150 mg/kg/day. […] Except for brief intervals when the treatments were withheld because of transient appetite loss, the NB-DNJ dosages were continued for about three months. On this date, the animals were sacrificed for histologic and lipid analyses.
Cat number: S222; Status: NPC-affected, NB-DNJ-treated; […]; […]. […] […] also was noted to have bilateral luxating patellas at about the same time. […] Over the course of the next 20 weeks, her disease symptoms slowly worsened. However, on several occasions it was noted by the consulting neurologist that her symptoms were less severe than those of S221. […] The following is a tabulation of her neurologic and medical findings:

[3] = format: in vivo; conditions: for Weight: NPC-affected cat S222, NB-DNJ treated, measured within 10 days before neuronal assessment
GM2 ganglioside = assay: Immunocytochemistry with anti-GM2 ganglioside antibodies in cat brain; format: in vivo
Text: The following sections highlight the histologic and lipid analysis findings for the study animals. As with humans, there is an increased expression of gangliosides in feline NPC neurons. […] There is a corresponding increase in neuronal ganglioside level and histology changes seen in NPC humans.
Immunocytochemical studies with anti-GM2 ganglioside antibodies were used to probe for ganglioside expression in treated vs. untreated cats in a qualitative manner.

NPC^−/− mice = assay: Mouse model of NPC: symptoms and survival; format: in vivo
Text: Colonies of mutant mice expressing the NPC phenotype have been described (Pentchev et al., 1984, Miyawaki et al., 1986; Kitagawa, 1987), and has been validated by a number of criteria as an authentic model of the disease (Akaboshi et al., 1997). NPC mice display clinical signs of the disease around 6-8 weeks of age with mild intention tremor and ataxia. […] Death results by 10-12 weeks.
Breeding pairs of mice heterozygous for the mutation causing NPC were used to produce offspring that are NPC^−/− homozygotes. These animals, along with their normal wildtype littermates, were used in the following NB-DNJ drug study. Where indicated, NB-DNJ was administered daily by mixing with ground mouse chow. Mice were PCR genotyped 2-3 weeks of age to determine their genetic background.
[…] NPC^−/− mice, with ages ranging from 3-7 weeks, were entered into a treatment study. Seven were treated with 1200 mg/kg/day and six were untreated. […] By 10 weeks of age, all six untreated NPC^−/− mice died or were sacrificed according to veterinary animal care requirements. In contrast, 4 of 7 NPC^−/− mice treated with NB-DNJ lived into their twelfth week. […] In this experiment, untreated NPC^−/− mice survived 65±1 days (average ±SE; n=6), while NPC^−/− mice treated with NB-DNJ at 1200 mg/kg/day survived 88±4 days (n=7).

alpha-glucosidase 1 = target: T1, alpha-glucosidase 1 (Homo sapiens, UniProt Q13724); conditions: cited from earlier work
T1 sequence (Q13724 1-837): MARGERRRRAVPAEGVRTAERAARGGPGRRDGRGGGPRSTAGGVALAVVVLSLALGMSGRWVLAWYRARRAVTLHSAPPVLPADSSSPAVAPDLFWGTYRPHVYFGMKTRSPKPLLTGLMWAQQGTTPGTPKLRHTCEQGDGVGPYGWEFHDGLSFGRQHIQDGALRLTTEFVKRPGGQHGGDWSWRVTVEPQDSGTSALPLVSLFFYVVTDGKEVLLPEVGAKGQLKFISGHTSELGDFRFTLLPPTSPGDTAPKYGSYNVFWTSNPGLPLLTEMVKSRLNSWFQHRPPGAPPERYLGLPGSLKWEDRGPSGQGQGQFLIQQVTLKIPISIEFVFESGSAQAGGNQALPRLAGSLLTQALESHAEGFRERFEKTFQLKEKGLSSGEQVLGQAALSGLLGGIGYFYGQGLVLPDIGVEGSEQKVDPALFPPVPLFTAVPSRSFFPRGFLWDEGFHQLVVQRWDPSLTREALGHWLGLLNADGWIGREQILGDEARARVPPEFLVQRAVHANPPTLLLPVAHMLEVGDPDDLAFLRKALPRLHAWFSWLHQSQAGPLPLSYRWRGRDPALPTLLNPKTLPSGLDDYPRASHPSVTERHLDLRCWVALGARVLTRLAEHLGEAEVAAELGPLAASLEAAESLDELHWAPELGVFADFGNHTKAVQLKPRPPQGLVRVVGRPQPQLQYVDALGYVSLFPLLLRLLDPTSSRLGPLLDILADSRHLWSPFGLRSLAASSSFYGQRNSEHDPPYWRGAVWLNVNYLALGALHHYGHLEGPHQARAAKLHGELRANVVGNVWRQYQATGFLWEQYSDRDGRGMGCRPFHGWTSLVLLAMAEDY

[4] = test system: glucosylceramide synthesis; conditions: cells treated with NB-DNJ; cited from earlier work
[5] = NPC-affected cat S222, 100 mg/kg/day

## GM1 ganglioside
[1]
  Neurodegenerative processes: seem to improve

## CCCCN1C[C@H](O)[C@@H](O)[C@H](O)[C@H]1CO [NB-DNJ, N-butyldeoxynojirimycin]
[2]; NPC-affected cat S222, 100 mg/kg/day, noted by consulting neurologist
  Severity of disease symptoms versus untreated NPC cat S221: less severe
[2]; Week 6.5
  Ataxia: none
  Front leg Hopping: 2
  Intention tremors: none
  Rear leg hopping: 2
  Vision-Menace: 2
[2]; Week 12.5
  Ataxia: none
  Front leg Hopping: 2
  Intention tremors: mild
  Vision-Menace: 1
[2]; Week 12.5, diagnosed with bilateral luxating patellas
  Rear leg hopping: 2^†
[2]; Week 16
  Ataxia: none
  Front leg Hopping: 2
  Intention tremors: mild
  Rear leg hopping: 2
  Vision-Menace: 1
[2]; Week 18.5
  Ataxia: none
  Front leg Hopping: 2
  Intention tremors: mild
  Rear leg hopping: 1.5
  Vision-Menace: 1.5
[2]; Week 20.5
  Ataxia: none
  Front leg Hopping: 2
  Intention tremors: mod
  Rear leg hopping: 2
  Vision-Menace: .5
[2]; Week 22.5
  Ataxia: none
  Front leg Hopping: 1.5
  Intention tremors: mild
  Rear leg hopping: 1.5
  Vision-Menace: 1
[2]; Week 24.5
  Ataxia: none
  Front leg Hopping: 2
  Intention tremors: mod
  Rear leg hopping: 2
  Vision-Menace: 1
[2]; Week 26.5
  Ataxia: none
  Front leg Hopping: 2
  Intention tremors: mild
  Rear leg hopping: 1.5
  Vision-Menace: 1
[2]; Week 29
  Ataxia: mod
  Front leg Hopping: 2
  Intention tremors: mod
  Rear leg hopping: 1
  Vision-Menace: 1
[2]; Week 30.5
  Ataxia: mild
  Intention tremors: mod
  Vision-Menace: 1
[2]; Week 32.5
  Ataxia: mod
  Front leg Hopping: 1
  Intention tremors: mod
  Rear leg hopping: 1
  Vision-Menace: 0.5
[2]; cats, NB-DNJ treatment
  Symptoms of neurologic degeneration typical for NPC: qualitatively delays
[3]; [5]
  Fur colour: light-coloured fur effect
  Tolerability: reasonably well handled
[3]; NPC-affected cat S222, 100 mg/kg/day, relative to normal and NPC-affected cats
  Appetite: significantly reduced
[3]; Week 6.5
  Weight: 522 gms
[3]; Week 12.5
  Weight: 965 gms
[3]; Week 16
  Weight: 1265 gms
[3]; Week 18.5
  Weight: 1390 gms
[3]; Week 20.5
  Weight: 1453 gms
[3]; Week 22.5
  Weight: 1469 gms
[3]; Week 24.5
  Weight: 1495 gms
[3]; Week 26.5
  Weight: 1525 gms
[3]; Week 29
  Weight: 1565 gms
[3]; Week 30.5
  Weight: 1590 gms
[3]; Week 32.5
  Weight: 1677 gms
[3]; NPC-affected cat S222, starting dose 1200 mg/kg/day
  Hepatotoxicity: acutely hepatotoxic
[3]; cats, 150 mg/kg/day
  Hepatotoxicity: hepatotoxic
[3]; cats, 1200 mg/kg/day
  Hepatotoxicity: acutely hepatotoxic
[3]; normal cat S161, 100 mg/kg/day
  Appetite and overall responsiveness: decreased
[3]; normal cat S218, 100 mg/kg/day
  Hair colour: markedly more beige
[3]; normal cat S218, 1200 mg/kg/day
  Serum levels of liver enzymes: dramatic elevation
[3]; normal cat S218, eventual dosage 100 mg/kg/day
  Appetite: significantly less than that of a normal cat
[3]; normal cat S218, starting dose 1200 mg/kg/day
  Hepatotoxicity: acutely hepatotoxic
[3]; normal female cat S218, 100 mg/kg/day, normal female cat expected about 4 kg
  Weight at the end of the treatment period: about 2.4 kg
GM2 ganglioside; NPC cat treated with NB-DNJ
  GM2 immunoreactivity in granular cell layer of cerebellum: largely devoid of GM2 immunoreactivity
  GM2 labeling in Purkinje cells: qualitatively less GM2 labeling
GM2 ganglioside; NPC cat treated with NB-DNJ, compared to untreated NPC cat
  GM2 labeling in the cerebral cortex: qualitatively less severe
GM2 ganglioside; NPC cats
  Accumulation of glucosylceramide-containing glycolipids (e.g. GM2): qualitatively decreases
NPC^−/− mice; NPC mice, 1200 mg/kg/day
  Symptoms of neurologic degeneration typical for NPC: qualitatively delaying
NPC^−/− mice; NPC mice, 1200 mg/kg/day versus untreated
  Increase in longevity: 26%
NPC^−/− mice; NPC^−/− mice, 1200 mg/kg/day in chow, by 8 weeks of age, untreated 5 out of 6
  Mice displaying symptoms of neurologic effects: none
NPC^−/− mice; NPC^−/− mice, 1200 mg/kg/day, by 9 weeks of age, untreated all six
  Mice displaying any degree of symptoms: 4 of 7
NPC^−/− mice; NPC^−/− mice, 1200 mg/kg/day, n=7, untreated 65±1 days
  Survival (average ±SE): 88 ± 4 days
NPC^−/− mice; NPC^−/− mice, 1200 mg/kg/day, twelfth week
  Surviving mice displaying some degree of NPC-induced neural degeneration: Three of these four
NPC^−/− mice; NPC^−/− mice, 1200 mg/kg/day, all untreated dead by 10 weeks
  Mice that lived into their twelfth week: 4 of 7
alpha-glucosidase 1
  Inhibition of alpha-glucosidase 1: potent inhibitor
[4]
  Glucosylceramide levels: markedly reduced
